In ChEMBL document CHEMBL1201862, “PubChem BioAssay data set” (2004):
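Five compound concentrations were applied to cells in 96-well plates for 48 hours; endpoints were derived by simple linear interpolation of the resulting dose-response curve. At the GI50, growth is halved.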 The source made the active and inactive calls. Cut-off read from the data, not from the text of the source: active = GI50 up to about 1.1 µM and inactive = higher.

Key:
Assay in all cases: growth of human tumour cells (NCI), 48 h
KM-20L2 = tested on: KM-20L2
U-251 = tested on: U-251
SNB-19 = tested on: SNB-19
OVCAR-3 = tested on: OVCAR-3
ACHN = tested on: ACHN
OVCAR-5 = tested on: OVCAR-5
SK-OV-3 = tested on: SK-OV-3
COLO 205 = tested on: COLO 205
CCRF-CEM = tested on: CCRF-CEM
SR = tested on: SR
SK-MEL-2 = tested on: SK-MEL-2
HOP-92 = tested on: HOP-92
M14 = tested on: M14
UACC-62 = tested on: UACC-62
SNB-75 = tested on: SNB-75
RXF 393 = tested on: RXF 393
TK-10 = tested on: TK-10

Compound | GI50 (KM-20L2) | GI50 (U-251) | GI50 (SNB-19) | GI50 (OVCAR-3) | GI50 (ACHN) | GI50 (OVCAR-5) | GI50 (SK-OV-3) | GI50 (COLO 205) | GI50 (CCRF-CEM) | GI50 (SR) | GI50 (SK-MEL-2) | GI50 (HOP-92) | GI50 (M14) | GI50 (UACC-62) | GI50 (SNB-75) | GI50 (RXF 393) | GI50 (TK-10)
CCOC(=O)C(=O)Nc1nc2ccc(C)cc2s1 | > 100 µM (inactive) | > 100 µM (inactive) | > 100 µM (inactive) | > 100 µM (inactive) | > 100 µM (inactive) | > 100 µM (inactive) | > 100 µM (inactive) | > 100 µM (inactive) | > 100 µM (inactive) | > 100 µM (inactive) | > 100 µM (inactive) | > 100 µM (inactive) | > 100 µM (inactive) | > 100 µM (inactive) | > 100 µM (inactive) | – | –
CCOC(=O)C(CCCNC(=O)OC(C)(C)C)N(Cc1ccc(OC)cc1OC)C(=O)CC(=O)CP(=O)(OCC)OCC (centres undefined) | > 100 µM (inactive) | > 100 µM (inactive) | > 100 µM (inactive) | > 100 µM (inactive) | > 100 µM (inactive) | > 100 µM (inactive) | > 100 µM (inactive) | > 100 µM (inactive) | > 100 µM (inactive) | 42.7 µM (inactive) | > 100 µM (inactive) | 16.2 µM (inactive) | > 100 µM (inactive) | > 100 µM (inactive) | > 100 µM (inactive) | > 100 µM (inactive) | > 100 µM (inactive)
CCn1c2ccccc2c2c(-c3ccccc3)cc3c(c21)C(=O)N(c1ccccc1)C3=O | > 100 µM (inactive) | > 100 µM (inactive) | 81.5 µM (inactive) | > 100 µM (inactive) | 99.8 µM (inactive) | > 100 µM (inactive) | > 100 µM (inactive) | > 100 µM (inactive) | > 100 µM (inactive) | > 100 µM (inactive) | > 100 µM (inactive) | 34.4 µM (inactive) | > 100 µM (inactive) | > 100 µM (inactive) | 89.5 µM (inactive) | – | > 100 µM (inactive)
O=c1c2cc3c(cc2c2cccc4c2n1CCC4)OCO3 | 45.7 µM (inactive) | 23.1 µM (inactive) | 44.7 µM (inactive) | 61.2 µM (inactive) | 33.7 µM (inactive) | 58.7 µM (inactive) | 55.3 µM (inactive) | 26.3 µM (inactive) | 89.3 µM (inactive) | 29.2 µM (inactive) | > 100 µM (inactive) | 55.5 µM (inactive) | 46.9 µM (inactive) | 46.2 µM (inactive) | 26.7 µM (inactive) | 28.4 µM (inactive) | 27.1 µM (inactive)
COc1cc(/C=C2\CCc3ccccc3C2=O)cc(OC)c1OC | 17.2 µM (inactive) | 16.1 µM (inactive) | 15.8 µM (inactive) | 15.8 µM (inactive) | 15.8 µM (inactive) | 14.4 µM (inactive) | 18.6 µM (inactive) | 17 µM (inactive) | 4.89 µM (inactive) | 3.86 µM (inactive) | 15.8 µM (inactive) | 11.1 µM (inactive) | 16.2 µM (inactive) | 14.3 µM (inactive) | 22.2 µM (inactive) | 14.6 µM (inactive) | 17.8 µM (inactive)
COC(=O)/C=C1/CCC(C(=O)OC)N1 (centres undefined) | > 100 µM (inactive) | > 100 µM (inactive) | > 100 µM (inactive) | > 100 µM (inactive) | > 100 µM (inactive) | – | > 100 µM (inactive) | > 100 µM (inactive) | > 100 µM (inactive) | > 100 µM (inactive) | > 100 µM (inactive) | > 100 µM (inactive) | > 100 µM (inactive) | > 100 µM (inactive) | > 100 µM (inactive) | > 100 µM (inactive) | > 100 µM (inactive)
O=C(CCc1nnc2s/c(=C\c3ccc(Cl)cc3Cl)c(=O)n12)Nc1cc(Cl)c(Cl)cc1Cl | > 10 µM (inactive) | 72.4 µM (inactive) | > 10 µM (inactive) | > 10 µM (inactive) | > 10 µM (inactive) | > 10 µM (inactive) | > 10 µM (inactive) | > 10 µM (inactive) | > 10 µM (inactive) | > 10 µM (inactive) | > 10 µM (inactive) | 24 µM (inactive) | > 10 µM (inactive) | > 10 µM (inactive) | 29 µM (inactive) | > 10 µM (inactive) | 55.7 µM (inactive)
COc1cc2noc(-c3ccccc3)c2cc1OC | 37.4 µM (inactive) | 26.7 µM (inactive) | 54 µM (inactive) | – | 87.1 µM (inactive) | 29.2 µM (inactive) | 63 µM (inactive) | 55.3 µM (inactive) | 42.5 µM (inactive) | 37 µM (inactive) | 75.9 µM (inactive) | 44.1 µM (inactive) | 55.6 µM (inactive) | 74.3 µM (inactive) | 4.59 µM (inactive) | 23.8 µM (inactive) | 80.9 µM (inactive)
CCOC(=O)CNC(SC)=C(C#N)C#N | > 100 µM (inactive) | > 100 µM (inactive) | > 100 µM (inactive) | > 100 µM (inactive) | – | > 100 µM (inactive) | > 100 µM (inactive) | > 100 µM (inactive) | > 100 µM (inactive) | > 100 µM (inactive) | – | > 100 µM (inactive) | > 100 µM (inactive) | > 100 µM (inactive) | > 100 µM (inactive) | > 100 µM (inactive) | > 100 µM (inactive)
O=C1C=C(Nc2ccccc2C(=O)c2ccccc2)c2ccccc2C1=O | > 100 µM (inactive) | 70.8 µM (inactive) | > 100 µM (inactive) | 70 µM (inactive) | 45 µM (inactive) | > 100 µM (inactive) | > 100 µM (inactive) | > 100 µM (inactive) | – | 48.1 µM (inactive) | > 100 µM (inactive) | 4.06 µM (inactive) | > 100 µM (inactive) | 8.04 µM (inactive) | 96.6 µM (inactive) | > 100 µM (inactive) | –
Cc1c(CC/C(=N\Nc2ccc([N+](=O)[O-])cc2[N+](=O)[O-])c2ccccc2)c2ccccc2n1C | > 100 µM (inactive) | > 100 µM (inactive) | > 94.4 µM (inactive) | > 100 µM (inactive) | > 100 µM (inactive) | > 100 µM (inactive) | > 100 µM (inactive) | > 100 µM (inactive) | > 44 µM (inactive) | – | > 100 µM (inactive) | 97.7 µM (inactive) | > 100 µM (inactive) | > 100 µM (inactive) | > 56.1 µM (inactive) | > 46.1 µM (inactive) | > 100 µM (inactive)
CC(=O)OCc1c(O)nc2c(c1O)-c1ccccc1CC2 | 106 µM (inactive) | > 350 µM (inactive) | > 350 µM (inactive) | 51.5 µM (inactive) | 163 µM (inactive) | – | 194 µM (inactive) | 57 µM (inactive) | 67.1 µM (inactive) | 95.1 µM (inactive) | > 35 µM (inactive) | 78.5 µM (inactive) | – | 50.5 µM (inactive) | – | 54.6 µM (inactive) | 86.9 µM (inactive)
CCOC(=O)NNC(=O)NC12CC3CC(CC(C3)C1)C2 | > 100 µM (inactive) | > 100 µM (inactive) | > 100 µM (inactive) | > 100 µM (inactive) | > 100 µM (inactive) | > 100 µM (inactive) | > 100 µM (inactive) | > 100 µM (inactive) | > 100 µM (inactive) | – | > 100 µM (inactive) | > 100 µM (inactive) | > 100 µM (inactive) | > 100 µM (inactive) | > 100 µM (inactive) | > 100 µM (inactive) | > 100 µM (inactive)
CC(=O)Nc1ccc(C2[C@H]3C(=O)N(c4ccc(Cc5ccc(N6C(=O)[C@@H]7ON(c8ccccc8)C(c8ccc(NC(C)=O)cc8)[C@@H]7C6=O)cc5)cc4)C(=O)[C@H]3ON2c2ccccc2)cc1 (some centres undefined) | > 100 µM (inactive) | > 100 µM (inactive) | > 100 µM (inactive) | > 100 µM (inactive) | > 100 µM (inactive) | > 100 µM (inactive) | > 100 µM (inactive) | 74.6 µM (inactive) | > 100 µM (inactive) | > 100 µM (inactive) | > 100 µM (inactive) | – | 25.2 µM (inactive) | 70.8 µM (inactive) | > 100 µM (inactive) | > 100 µM (inactive) | > 100 µM (inactive)
COc1ccc(NC(=O)c2oc3cc(O)ccc3c(=O)c2C)c([N+](=O)[O-])c1 | > 100 µM (inactive) | > 100 µM (inactive) | > 100 µM (inactive) | > 100 µM (inactive) | > 100 µM (inactive) | > 100 µM (inactive) | > 100 µM (inactive) | > 100 µM (inactive) | > 100 µM (inactive) | > 100 µM (inactive) | > 100 µM (inactive) | > 100 µM (inactive) | > 100 µM (inactive) | > 100 µM (inactive) | > 100 µM (inactive) | > 100 µM (inactive) | > 100 µM (inactive)
Cc1[nH]c2c(C)cccc2c1C1Cc2ccccc2N1 (centres undefined) | 17.1 µM (inactive) | 20 µM (inactive) | 29.1 µM (inactive) | 16.7 µM (inactive) | 27.4 µM (inactive) | 21.2 µM (inactive) | 36.5 µM (inactive) | 18.2 µM (inactive) | 25.5 µM (inactive) | 20.7 µM (inactive) | 28.8 µM (inactive) | 0.0214 µM (active) | 15.5 µM (inactive) | 18.6 µM (inactive) | > 100 µM (inactive) | 10.7 µM (inactive) | 23 µM (inactive)
COc1ccc2nc3cc(Cl)ccc3c(Sc3ccc(N)cc3)c2c1 | 4.59 µM (inactive) | 10.5 µM (inactive) | 16.9 µM (inactive) | 9.57 µM (inactive) | 10.1 µM (inactive) | 19.8 µM (inactive) | 4.37 µM (inactive) | 11.2 µM (inactive) | 3.81 µM (inactive) | 2.62 µM (inactive) | 13.8 µM (inactive) | 24.4 µM (inactive) | 9.06 µM (inactive) | 5.04 µM (inactive) | 11 µM (inactive) | 11.7 µM (inactive) | 13.2 µM (inactive)
